The target of the assay is CK2 (Homo sapiens (Human), UniProt P68400). Description: Radiometric CK2 kinase assay. Format: biochemical. The note with it: for inhibition at 1 µM: compound at 1 μM.

Where two headings read alike, the source gives them in different places.

Chain of CK2 (P68400 whole entry): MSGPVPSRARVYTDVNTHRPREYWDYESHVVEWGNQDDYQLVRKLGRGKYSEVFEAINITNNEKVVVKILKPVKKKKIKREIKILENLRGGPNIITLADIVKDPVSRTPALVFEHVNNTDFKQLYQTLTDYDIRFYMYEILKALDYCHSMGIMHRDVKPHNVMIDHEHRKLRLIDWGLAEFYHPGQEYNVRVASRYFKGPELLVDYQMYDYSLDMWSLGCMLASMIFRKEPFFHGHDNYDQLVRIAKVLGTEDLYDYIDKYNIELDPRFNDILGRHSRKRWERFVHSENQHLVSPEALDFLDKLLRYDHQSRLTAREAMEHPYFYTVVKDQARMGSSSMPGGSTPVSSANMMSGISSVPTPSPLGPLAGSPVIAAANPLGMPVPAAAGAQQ

In general, IC50 refers to the concentration needed to halve the response being measured. Read a low IC50 as inhibition by little substance. `CCc1ccc(S(=O)(=O)NCCN2CCC(Cn3cc(-c4c(C(=O)OC(C)C)[nH]c5ccc(F)cc45)nn3)CC2)cc1` [AB577, Isopropyl 3-(1-((1-(2-((4-ethylphenyl)sulfonamido)ethyl)piperidin-4-yl)methyl)-1H-1,2,3-triazol-4-yl)-5-fluoro-1H-indole-2-carboxylate] had a half-maximal inhibitory concentration (IC50) of 2.3 µM.

As to `CCc1ccc(S(=O)(=O)NCCN2CCC(Cn3cc(-c4c(C(=O)OC(C)C)[nH]c5ccc(Cl)cc45)nn3)CC2)cc1` [AB578, Isopropyl 5-chloro-3-(1-((1-(2-((4-ethylphenyl)sulfonamido)ethyl)piperidin-4-yl)methyl)-1H-1,2,3-triazol-4-yl)-1H-indole-2-carboxylate], 9.2 µM corresponded to half-maximal inhibition (IC50).

The compound `CCOC(=O)c1[nH]c2ccc(F)cc2c1-c1cn(CC2CCN(CCNS(=O)(=O)c3ccc(C(C)C)cc3)CC2)nn1` [AB579, Ethyl 5-fluoro-3-(1-((1-(2-((4-isopropylphenyl)sulfonamido)ethyl)piperidin-4-yl)methyl)-1H-1,2,3-triazol-4-yl)-1H-indole-2-carboxylate] gave an IC50 of 0.43 µM.

Take `CCOC(=O)c1[nH]c2ccc(Cl)cc2c1-c1cn(CC2CCN(CCNS(=O)(=O)c3ccc(C(C)C)cc3)CC2)nn1` [AB582, Ethyl 5-chloro-3-(1-((1-(2-((4-isopropylphenyl)sulfonamido)ethyl)piperidin-4-yl)methyl)-1H-1,2,3-triazol-4-yl)-1H-indole-2-carboxylate]: the IC50 is 1.25 µM.

`CCc1ccc(S(=O)(=O)NCCN2CCC(Cn3cc(-c4c(C(=O)OCCO)[nH]c5ccc(F)cc45)nn3)CC2)cc1` [AB597, 2-Hydroxyethyl 3-(1-((1-(2-((4-ethylphenyl)sulfonamido)ethyl)piperidin-4 yl)methyl)-1H-1,2,3-triazol-4-yl)-5-fluoro-1H-indole-2-carboxylate] came in with an IC50 of 1.6 µM.

Consider `CC(C)COC(=O)c1[nH]c2ccc(F)cc2c1-c1cn(CC2CCN(CCNS(=O)(=O)c3ccc4ccccc4c3)CC2)nn1` [AB598, Isobutyl 5-fluoro-3-(1-((1-(2-(naphthalene-2-sulfonamido)ethyl)piperidin-4-yl)methyl)-1H-1,2,3-triazol-4-yl)-1H-indole-2-carboxylate], for which 0.51 µM corresponded to half-maximal inhibition (IC50).

In the case of `CC(C)COC(=O)c1[nH]c2ccc(Cl)cc2c1-c1cn(CC2CCN(CCNS(=O)(=O)c3ccc4ccccc4c3)CC2)nn1` [AB599, Isobutyl 5-chloro-3-(1-((1-(2-(naphthalene-2-sulfonamido)ethyl)piperidin-4-yl)methyl)-1H-1,2,3-triazol-4-yl)-1H-indole-2-carboxylate], the IC50 was 3.2 µM.

Take `CC(C)COC(=O)c1[nH]c2ccc(F)cc2c1-c1cn(CC2CCN(CCNS(=O)(=O)c3ccc(C(F)(F)F)cc3)CC2)nn1` [AB600, Isobutyl 5-fluoro-3-(1-((1-(2-((4-(trifluoromethyl)phenyl)sulfonamido)ethyl)piperidin-4-yl)methyl)-1H-1,2,3-triazol-4-yl)-1H-indole-2-carboxylate]: half-maximal inhibition (IC50) required 0.35 µM.

`CC(C)COC(=O)c1[nH]c2ccc(Cl)cc2c1-c1cn(CC2CCN(CCNS(=O)(=O)c3ccc(C(F)(F)F)cc3)CC2)nn1` [AB601, Isobutyl 5-chloro-3-(1-((1-(2-((4-(trifluoromethyl)phenyl)sulfonamido)ethyl)piperidin-4-yl)methyl)-1H-1,2,3-triazol-4-yl)-1H-indole-2-carboxylate] had an IC50 of 1.4 µM.

As for `CC(C)COC(=O)c1[nH]c2ccc(F)cc2c1-c1cn(CC2CCN(CCNS(=O)(=O)c3ccc(C(C)C)cc3)CC2)nn1` [AB603, Isobutyl 5-fluoro-3-(1-((1-(2-((4-isopropylphenyl)sulfonamido)ethyl)piperidin-4-yl)methyl)-1H-1,2,3-triazol-4-yl)-1H-indole-2-carboxylate], the “Competition with peptide substrate” value is “not competitive with the peptide substrate” and 0.15 µM corresponded to half-maximal inhibition (IC50). The “Inhibition of CK2a versus CK2 holoenzyme” value (CK2a compared with CK2 holoenzyme) is on record as “not inhibited to the same extent”.

In turn, `CCc1ccc(S(=O)(=O)NCCN2CCC(Cn3cc(-c4c(C(=O)OCCN)[nH]c5ccc(F)cc45)nn3)CC2)cc1` [AB614, 2-Aminoethyl 3-(1-((1-(2-((4-ethylphenyl)sulfonamido)ethyl)piperidin-4-yl)methyl)-1H-1,2,3-triazol-4-yl)-5-fluoro-1H-indole-2-carboxylate] yielded an IC50 (inhibition of CK2 activity, ATP 10 μM) of 3.24 µM.

For orientation: inhibition means the drop in the measured response relative to a control, in per cent. For `CCc1ccc(S(=O)(=O)NCCN2CCC(Cn3cc(-c4c(C(=O)NCC(C)C)[nH]c5ccc(F)cc45)nn3)CC2)cc1` [AB651, 3-(1-((1-(2-((4-Ethylphenyl)sulfonamido)ethyl)piperidin-4-yl)methyl)-111-1,2,3-triazol-4-yl)-5-fluoro-N-isobutyl-1H-indole-2-carboxamide], where the note is “ATP 10 μM”, the inhibition at 1 µM stood at 5%.

Regarding `CC(C)CNC(=O)c1[nH]c2ccc(F)cc2c1-c1cn(CC2CCN(CCNS(=O)(=O)c3ccc(C(C)C)cc3)CC2)nn1` [AB652, 5-Fluoro-N-isobutyl-3-(1-((1-(2-((4-isopropylphenyl)sulfonamido)ethyl)piperidin-4-yl)methyl)-1H-1,2,3-triazol-4-yl)-1H-indole-2-carboxamide], the inhibition at 1 µM (ATP 10 μM) was found to be 4%.

Where the note is “ATP 10 μM”, `CCc1ccc(S(=O)(=O)NCCN2CCC(Cn3cc(-c4c(C(=O)OCCC(C)C)[nH]c5ccc(F)cc45)nn3)CC2)cc1` [AB663, Isopentyl 3-(1-((1-(2-((4-ethylphenyl)sulfonamido)ethyl)piperidin-4-yl)methyl)-1H-1,2,3-triazol-4-yl)-5-fluoro-1H-indole-2-carboxylate] yielded an inhibition at 1 µM of 11%.

Turning to `CC(C)CCOC(=O)c1[nH]c2ccc(F)cc2c1-c1cn(CC2CCN(CCNS(=O)(=O)c3ccc(C(C)C)cc3)CC2)nn1` [AB664, Isopentyl 5-fluoro-3-(1-((1-(2-((4-isopropylphenyl)sulfonamido)ethyl)piperidin-4-yl)methyl)-1H-1,2,3-triazol-4-yl)-1H-indole-2-carboxylate], the inhibition at 1 µM (ATP 10 μM) was determined as 15%.

In the case of `CC(C)CCOC(=O)c1[nH]c2ccc(F)cc2c1-c1cn(CC2CCN(CCNS(=O)(=O)c3ccc(CC(C)C)cc3)CC2)nn1` [AB669, Isopentyl 5-fluoro-3-(1-((1-(2-((4-isobutylphenyl)sulfonamido)ethyl)piperidin-4-yl)methyl)-1H-1,2,3-triazol-4-yl)-1H-indole-2-carboxylate], the inhibition at 1 µM (ATP 10 μM) was found to be 32%.

`CCc1ccc(S(=O)(=O)NCCN2CCC(Cn3cc(-c4c(C(=O)NCCC(C)C)[nH]c5ccc(F)cc45)nn3)CC2)cc1` [AB670, 3-(1-((1-(2-((4-Ethylphenyl)sulfonamido)ethyl)piperidin-4-yl)methyl)-1H-1,2,3-triazol-4-yl)-5-fluoro-N-isopentyl-1H-indole-2-carboxamide] yielded an inhibition at 1 µM (ATP 10 μM) of 14%.

With `CC(C)CCNC(=O)c1[nH]c2ccc(F)cc2c1-c1cn(CC2CCN(CCNS(=O)(=O)c3ccc(C(C)C)cc3)CC2)nn1` [AB671, 5-Fluoro-N-isopentyl-3-(1-((1-(2-((4-isopropylphenyl)sulfonamido)ethyl)piperidin-4-yl)methyl)-1H-1,2,3-triazol-4-yl)-1H-indole-2-carboxamide], at 1 µM the inhibition (ATP 10 μM) was 18%.

In the case of `COCc1ccccc1-c1ccc(CN2CCC(Cn3cc(-c4c(C(=O)OCC(C)C)[nH]c5ccc(F)cc45)nn3)CC2)cc1Cl` [AB680, Isobutyl 3-(1-((1-((2-chloro-2′-(methoxymethyl)-[1,1′-biphenyl]-4-yl)methyl)piperidin-4-yl)methyl)-1H-1,2,3-triazol-4-yl)-5-fluoro-1H-indole-2-carboxylate], the inhibition at 1 µM (ATP 10 μM) came out at 11%.

On to `COCc1ccccc1-c1ccc(C(=O)N2CCC(Cn3cc(-c4c(C(=O)OCC(C)C)[nH]c5ccc(F)cc45)nn3)CC2)cc1Cl` [AB681, Isobutyl 3-(1-((1-(2-chloro-2′-(methoxymethyl)-[1,1′-biphenyl]-4-carbonyl)piperidin-4-yl)methyl)-1H-1,2,3-triazol-4-yl)-5-fluoro-1H-indole-2-carboxylate], for which the inhibition at 1 µM (ATP 10 μM) was determined as 18%.

Where the note is “ATP 10 μM”, `COc1ccccc1-c1ccc(CN2CCC(Cn3cc(-c4c(C(=O)OCC(C)C)[nH]c5ccc(F)cc45)nn3)CC2)cc1Cl` [AB689, Isobutyl 3-(1-((1-((2-chloro-2′-methoxy-[1,1′-biphenyl]-4-yl)methyl)piperidin-4-yl)methyl)-1H-1,2,3-triazol-4-yl)-5-fluoro-1H-indole-2-carboxylate] showed an inhibition at 1 µM of 6%.

`CC(C)COC(=O)c1[nH]c2ccc(F)cc2c1-c1cn(CC2CCN(Cc3ccc(-c4cccc5[nH]ccc45)c(Cl)c3)CC2)nn1` [AB690, Isobutyl 3-(1-((1-(3-chloro-4-(1H-indol-4-yl)benzyl)piperidin-4-yl)methyl)-1H-1,2,3-triazol-4-yl)-5-fluoro-1H-indole-2-carboxylate] came in with an inhibition at 1 µM (ATP 10 μM) of 31%.

As to `CC(C)COC(=O)c1[nH]c2ccc(F)cc2c1-c1cn(CC2CCN(Cc3ccc(Oc4ccccc4)c(Cl)c3)CC2)nn1` [AB691, Isobutyl 3-(1-((1-(3-chloro-4-phenoxybenzyl)piperidin-4-yl)methyl)-1H-1,2,3-triazol-4-yl)-5-fluoro-1H-indole-2-carboxylate], at 1 µM the inhibition (ATP 10 μM) was 3%.

As for `COc1ccc(C)cc1-c1ccc(CN2CCC(Cn3cc(-c4c(C(=O)OCC(C)C)[nH]c5ccc(F)cc45)nn3)CC2)cc1Cl` [AB692], 1 µM produced 5% inhibition (ATP 10 μM).

For the compound `CC(C)COC(=O)c1[nH]c2ccc(F)cc2c1-c1cn(CC2CCN(Cc3ccc(Oc4ccccc4)c(C(C)C)c3)CC2)nn1` [AB697, Isobutyl 5-fluoro-3-(1-((1-(3-isopropyl-4-phenoxybenzyl)piperidin-4-yl)methyl)-1H-1,2,3-triazol-4-yl)-1H-indole-2-carboxylate], the inhibition at 1 µM (ATP 10 μM) stood at 16%.

In turn, `CC(C)COC(=O)c1[nH]c2ccc(F)cc2c1-c1cn(CC2CCN(Cc3ccc(-c4cccc5[nH]ccc45)c(C(C)C)c3)CC2)nn1` [AB703, Isobutyl 3-(1-((1-(4-(1H-indol-4-yl)-3-isopropylbenzyl)piperidin-4-yl)methyl)-1H-1,2,3-triazol-4-yl)-5-fluoro-1H-indole-2-carboxylate] displayed an inhibition at 1 µM (ATP 10 μM) of 8%.

Consider `COCc1ccccc1-c1ccc(CN2CCC(Cn3cc(-c4c(C(=O)OCC(C)C)[nH]c5ccc(F)cc45)nn3)CC2)cc1C(C)C` [AB704], for which the inhibition at 1 µM (ATP 10 μM) was determined as 21%.

(Values after patent US20230278983A1, “INDOLE DERIVATIVES AND USES THEREOF FOR TREATING A CANCER” (Universite Claude Bernard Lyon 1, priority 2020, published 2023).)
